For series [1], the system named is Calu3 2B4 cells.
Series [2] deals with SARS-CoV-2. As to the kind of experiment: microbe, parasite or virus in culture. The format is cell-based, SARS-CoV-2 clinical isolate 2019-nCoV/USA-WA1/2020.
In series [3] the test system is Calu3 2B4 cells. The conditions noted are these: human.
In series [4] the test system is Vero E6 cells.
In series [5] the test system is SARS-CoV-2. As to the kind of experiment: microbe, parasite or virus in culture. The format is cell-based, SARS-CoV-2 clinical isolate 2019-nCoV/USA-WA1/2020. The source holds these as a separate data set.
The test system of series [6] is HAE cultures.
In series [7] the test system is HAE cultures. The conditions noted are these: female, human.
Series [8] relates to Vero E6 cells. The source holds these as a separate data set.
For series [9], the system named is SARS-CoV-2. In kind it is cell-based, SARS-CoV-2 clinical isolate 2019-nCoV/USA-WA1/2020.
Where [10] appears, read: Severe acute respiratory syndrome coronavirus 2, Calu-3 2B4, read-out: EC90 (infectious viral titer).
The mark [11] stands for this setting: Severe acute respiratory syndrome coronavirus 2, Calu-3 2B4, read-out: EC90 (qRT-PCR).
Where [12] appears, read: Severe acute respiratory syndrome coronavirus 2, Calu-3 2B4, read-out: Genome copy EC50.
Setting [13] is: Severe acute respiratory syndrome coronavirus 2, Calu-3 2B4, read-out: Plaque assay EC50.

SMILES strings stand for the structures. Where two headings read alike, the source gives them in different places. Marks after values point to notes of the source that are not given here.

What is called EC90 is the concentration needed for an effect of 90%. One may read the EC50 as the concentration needed to bring the measured effect to its halfway point.

Turning to `N#C[C@@]1(c2ccc3c(N)ncnn23)O[C@H](CO)[C@@H](O)[C@H]1O` [GS-441524], the cytotoxicity result with Calu3 2B4 cells [1] and with Vero E6 cells [4] was “No significant cytotoxicity” in each case. For the same molecule, the EC90 came to 1340 nM with SARS-CoV-2 [2] (setting [10]); 1370 nM in the series on SARS-CoV-2 [2] (setting [11]); 710 nM in the series on SARS-CoV-2 [5] (Severe acute respiratory syndrome coronavirus 2, Vero C1008, read-out: EC90 (infectious viral titer)); 800 nM in the series on SARS-CoV-2 [5] (Severe acute respiratory syndrome coronavirus 2, Vero C1008, read-out: EC90 (qRT-PCR)). In addition, the EC50 came to 1090 nM in the series on SARS-CoV-2 [2] (setting [12]) and 620 nM with SARS-CoV-2 [2] (setting [13]). Also, the “RDV-TP at 24 h” value in the series with Calu3 2B4 cells [3] is recorded as 0.85 ± 0.16 ^e pmol/million cells.

Consider `CCC(CC)COC(=O)[C@H](C)N[P@](=O)(OC[C@H]1O[C@@](C#N)(c2ccc3c(N)ncnn23)[C@H](O)[C@@H]1O)Oc1ccccc1` [RDV, Remdesivir], for which the cytotoxicity entry in the series on Calu3 2B4 cells [1] was “No significant cytotoxicity”; in the series on HAE cultures [6], “did not cause cytotoxicity”; in the series with Vero E6 cells [4], “No significant cytotoxicity”. Further, the EC90 with SARS-CoV-2 [2] (setting [10]) is 2480 nM; in the series on SARS-CoV-2 [2] (setting [11]), 1280 nM. In addition, the EC50 with SARS-CoV-2 [2] (setting [12]) was 600 nM; in the series with SARS-CoV-2 [2] (setting [13]) it was 280 nM. In addition, the “difference in RDV-TP between the two HAE donor cultures” value in the series on HAE cultures [7] is listed as “less than 3 fold”. The “RDV-TP at 24 h” value in the series on Vero E6 cells [8] (African green monkey) is given as 0.50 ± 0.15 ^d pmol/million cells. Moreover, the “RDV-TP levels in Vero E6 cells lower than in HAE cultures” value with Vero E6 cells [8] (African green monkey) is recorded as ~20 fold. Moreover, the “RDV-TP levels in Vero E6 cells lower than in Calu3 2B4” value in the series on Vero E6 cells [8] (African green monkey (Vero E6) and human (Calu3 2B4)) is “approximately 4 fold”. Also, in the series with SARS-CoV-2 [9], the “inhibition of infectious virus production” value is listed as “more than 100 fold”.

The values above are taken from publication PMC7340027 (Cell Reports, 2020).
